Consider 84 compounds from PubChem BioAssay AID2765 (Broad Institute, 2010).

This assay deals with MEF A1-2A-BIM cells, caspase 3/7 luminescence, 3 h. The assay is described as follows: inducers of caspase signal in A1-dependent MEFs – cell-based, luminescence, retest, A1 inhibitor project, dose response (AID 2765).

pEC50: −log10 of the molar value. Calls of active or inactive are those of the source.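 The calls were made as follows: active = half-maximal concentration for the rise in caspase light signal at or below ten times the top tested dose; inconclusive = flat fit between 30% and 70% activity, or unreliable curve fit; inactive = the rest.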

In the case of `Cc1ccc(CNC(=O)CCS(=O)(=O)c2ccc3c(c2)CC(C)N3C(=O)C2CC2)o1` (centres undefined), the EC50 was > 35 µM (inactive).

Regarding `COc1cc(-c2nnc(NC(=O)CCS(=O)(=O)c3ccc(F)cc3)o2)cc(OC)c1OC`, the EC50 was > 35 µM (inactive). Consider `COc1ccc(C(=O)NCc2cccnc2)cc1Br`, for which the EC50 was > 35 µM (inactive).

Turning to `CS(=O)(=O)Nc1ccc(C2=NN(S(C)(=O)=O)C(c3ccccc3)C2)cc1` (centres undefined), the EC50 is > 35 µM (inactive).

For `Cc1ccc(S(=O)(=O)NCC(=O)OC2CCOC2=O)cc1` (centres undefined), the EC50 was > 35 µM (inactive). Still for that read-out and setting: the same measure for `O=C(O)Cc1ccc(NC(=O)C(c2ccccc2)c2ccccc2)cc1`: > 35 µM (inactive). Consider `COc1ccc(-c2csc(NC(=O)Cc3ccccc3F)n2)c(OC)c1`, for which the EC50 is > 35 µM (inactive). The same measure, in the same setting: the same measure for `CC(C)(C)NC(=O)NC(=O)COC(=O)CNS(=O)(=O)/C=C/c1ccccc1`: > 35 µM (inactive); for `O=C(NCc1cccnc1)[C@@H]1CC=C[C@@H]2CCN(Cc3ccccc3)C(=O)[C@@H]21`: > 35 µM (inactive); for `C=CCNC(=O)c1ccccc1NC(=O)COc1ccccc1`: > 35 µM (inactive). Same read-out and setting: the same measure for `CC(O)[C@H](NC(=O)C1(c2ccccc2)CCN(C(=O)OC(C)(C)C)CC1)C(=O)O` (some centres undefined): > 35 µM (inactive); for `COc1cc2c(cc1OC)C(C)N(C(=O)c1cc3c(s1)-c1ccccc1OC3)CC2` (centres undefined): > 35 µM (inactive). Same read-out and setting: the same measure for `CC(=O)Nc1ccc([N+](=O)[O-])c(CS(=O)(=O)c2ccc(C)cc2)c1[N+](=O)[O-]`: > 35 µM (inactive).

`COc1ccc(CCNCC(C)c2ccccc2)cc1` (centres undefined): the EC50 is > 35 µM (inactive).

Regarding `CC(c1ccccc1)n1c(CCCO)nc2ccccc21` (centres undefined), the EC50 was > 35 µM (inactive). Turning to `CCc1nc(N=Nc2c(O)[nH]c3ccccc23)c2c3c(sc2n1)CCC3`, the pEC50 was 4.68. Regarding `Cc1ccc2c(c1)C(=O)C(=O)N2Cc1ccc(Br)cc1`, the EC50 was > 35 µM (inactive). On to `Fc1ccc(NC(=S)NCc2ccccc2Cl)cc1`, for which the EC50 is > 35 µM (inactive).

In the case of `Cc1c(Cl)cccc1NC(=O)[C@@]1(CC(=O)O)CC(/C=C/c2ccccc2)=NO1`, the EC50 is > 35 µM (inactive). For `O=C(NCCN1CCN(c2ccccc2)CC1)c1ccc2c(c1)[nH]c(=S)n1c3ccccc3nc21`, the EC50 was > 35 µM (inactive). For the compound `CCCCNC(=O)c1ccc(Cn2c(=S)[nH]c3c([nH]c4ccc(OC)cc43)c2=O)cc1`, the pEC50 was 5.28. For `CCCOC(=O)c1[nH]c2c(c1C)C(=O)CC(c1cccs1)C2` (centres undefined), the EC50 is > 35 µM (inactive). Regarding `CCOC(=O)CSc1nnc(Cc2ccc(OC)cc2)n1-c1ccccc1`, the EC50 is > 35 µM (inactive). Same read-out and setting: the same measure for `CC(=O)Nc1ncnc2c1c(-c1ccc(Cl)cc1)nn2C(C)(C)C`: > 35 µM (inactive); for `CCOC(=O)c1[nH]c2ccccc2c1NC(=S)Nc1cc(C)ccc1C`: > 35 µM (inactive); for `Cc1ccc(S(=O)(=O)n2cc(-c3ccccc3)c3ccccc32)cc1`: > 35 µM (inactive). Turning to `O=C(NCCc1ccccc1)C1CCCN1C(=O)Nc1ccc(F)cc1` (centres undefined), the EC50 is > 35 µM (inactive). For the compound `O=C(/C=C/c1ccc(Br)cc1)c1ccc(NC2=NCCCS2)cc1`, the EC50 is > 35 µM (inactive). On the same count and under the same terms, the same measure for `CCOC(=O)C[C@H]1c2ccccc2S(=O)(=O)N1Cc1cccc(C(F)(F)F)c1`: > 35 µM (inactive); for `CCOC(=O)C1=C(C)N(C)C(=O)C1CC(=O)O` (centres undefined): > 35 µM (inactive). Take `CC(C)CCN(C(=O)Cc1ccc(Cl)c(Cl)c1)c1c(N)n(Cc2ccccc2)c(=O)[nH]c1=O`: the pEC50 was 4.92. `N#Cc1cc(C(=O)c2cc(Br)ccc2O)cn(C2CC2)c1=O`: the EC50 was > 35 µM (inactive).

Take `Cc1ccc(CS(=O)(=O)c2ncc(Cl)c(C(=O)Nc3ccc(OC(F)F)cc3)n2)cc1`: the EC50 was > 35 µM (inactive). The same measure, in the same setting: the same measure for `COc1cccc(-c2cc(=O)c3cc(NC(=O)c4ccc(N(C)C)cc4)ccc3[nH]2)c1`: > 35 µM (inactive). The same measure, in the same setting: the same measure for `O=C(Nc1ccccc1)N(Cc1ccc(Cl)cc1)CC(O)C(F)(F)F` (centres undefined): > 35 µM (inactive). Turning to `Cn1ccc(=NC=C(C#N)C#N)c2ccccc21`, the EC50 is > 35 µM (inactive). Same read-out and setting: the same measure for `COc1ccc(CCNC(=O)C2=COCCO2)cc1`: > 35 µM (inactive). Still for that read-out and setting: the same measure for `CCC1(C(=O)c2ccc(Cl)cc2)C2c3ccccc3OC(=O)C21C(=O)Nc1ccccc1` (centres undefined): > 35 µM (inactive); for `N#C/C(=C\c1ccc(OCc2ccccc2)cc1)C(=O)Nc1nc2c(s1)CCN(Cc1ccccc1)C2`: > 35 µM (inactive). On the same count and under the same terms, the same measure for `COc1ccc(C(=O)NCc2nnc(SCC(=O)NCc3ccco3)o2)cc1OC`: > 35 µM (inactive); for `COc1ccccc1N1CCN(C(c2ccccc2)c2nnnn2CCc2ccccc2)CC1` (centres undefined): > 35 µM (inactive); for `CCOC(=O)CC1=C(C(=O)OCC)C2(C(=O)Nc3ccccc32)C(C#N)=C(N)O1` (centres undefined): > 35 µM (inactive). As for `Cn1c2ccccc2c2cnn(CC(=O)NCCCN3CCN(c4ccccc4F)CC3)c(=O)c21`, the EC50 was > 35 µM (inactive). For `Nc1ccc(N2CCN(Cc3ccccc3Cl)CC2)c(Cl)c1`, the EC50 is > 35 µM (inactive). `CCCCCCCC/C=C\CCCCCCCC(=O)O`: the EC50 was > 35 µM (inactive). In the case of `Cc1cc(NC(=O)CN(C)C)c([N+](=O)[O-])cc1C`, the EC50 was > 35 µM (inactive). Consider `CC1CCN(c2ccc3nnc(CCC(=O)NCc4ccco4)n3n2)CC1`, for which the EC50 was > 35 µM (inactive). Turning to `COc1cc(/C=C(/C#N)c2nc3ccccc3[nH]2)ccc1OCC(=O)Nc1ccccc1C(C)C`, the pEC50 was 4.84.

As for `CCOC(=O)C1=C(C)N(CCCC(=O)O)C(=O)NC1c1ccccc1OS(=O)(=O)c1ccc(C)cc1` (centres undefined), the EC50 was > 35 µM (inactive). For `CSc1ccc(CCNC(=O)CCc2nnc3ccc(NCCCN4CCCC4=O)nn23)cc1`, the EC50 was > 35 µM (inactive). Still for that read-out and setting: the same measure for `CCS(=O)(=O)c1ncc(Cl)c(C(=O)Nc2ccc(S(=O)(=O)N3CCC(C)CC3)cc2)n1`: > 35 µM (inactive); for `COc1ccc(/C=C/C(=O)NC(=S)NCCc2ccc(OC)c(OC)c2)cc1`: > 35 µM (inactive). Turning to `Cc1ccc(NC(=O)c2ccc(N/N=C/c3cccc(O)c3)c([N+](=O)[O-])c2)cc1`, the negative-log EC50 (pEC50) is 4.67.

Consider `CCCc1cc(=O)oc2cc(C)cc(OCC(=O)Nc3ccc(S(N)(=O)=O)cc3)c12`, for which the EC50 was > 35 µM (inactive). As for `Cc1nc(NC(=O)CN2CCN(c3cccc(Cl)c3)CC2)sc1C(=O)N(C)C`, the EC50 was > 35 µM (inactive). On the same count and under the same terms, the same measure for `COc1ccc2[nH]c(=O)c(-c3nnn(-c4ccccc4)n3)cc2c1`: > 35 µM (inactive); for `Cc1cc(C)cc(N(CC(=O)Nc2cccc(C)c2C)S(=O)(=O)c2c(C)[nH]c(=O)[nH]c2=O)c1`: > 35 µM (inactive). The same measure, in the same setting: the same measure for `CCCCNC(=O)c1ccc2nc(-c3ccco3)c(-c3ccco3)nc2c1`: > 35 µM (inactive); for `O=P(C(c1c[nH]c2ccccc12)N1CCOCC1)(N1CCOCC1)N1CCOCC1` (centres undefined): > 35 µM (inactive); for `O=C(O)/C(=C\c1c(C(=O)O)[nH]c2cc(Cl)cc(Cl)c12)c1ccccc1`: > 35 µM (inactive). Regarding `Cc1cc(C)cc(NC(=O)/C(C#N)=C/c2cn(CC(=O)NCc3ccco3)c3ccccc23)c1`, the pEC50 was 5.33.

Regarding `O=C1C(=O)c2ccc(-c3ccccc3)cc2-c2ccccc21`, the EC50 was > 35 µM (inactive). Same read-out and setting: the same measure for `Cc1ccc(S(=O)(=O)CC#CCOC(=O)c2ccc([N+](=O)[O-])cc2)cc1`: > 35 µM (inactive); for `COc1ccc(C(CNC(=O)c2cc(S(=O)(=O)NCc3ccco3)ccc2C)N(C)C)cc1` (centres undefined): > 35 µM (inactive); for `O=C1NC(=O)c2cc(NC(=O)C3CCCO3)ccc21` (centres undefined): > 35 µM (inactive). For the compound `N#Cc1ccc(S(=O)(=O)N2CCC(N3CCCCC3)CC2)cc1`, the EC50 is > 35 µM (inactive). The same measure, in the same setting: the same measure for `NS(=O)(=O)c1ccc(-c2ccc(/C=C3\C(=O)Nc4ccccc43)o2)cc1`: > 35 µM (inactive); for `COc1ccccc1N1CCN(C(=O)c2ccc(C(C)(C)C)cc2)CC1`: > 35 µM (inactive). Still for that read-out and setting: the same measure for `COC(=O)c1ccc(NC(=O)C2CC(=O)N(c3ccc(C)cc3)C2)cc1` (centres undefined): > 35 µM (inactive); for `O=C(CN1CCN(Cc2ccccc2)CC1)Nc1ccc(Br)cc1`: > 35 µM (inactive). Still for that read-out and setting: the same measure for `O=C(O)c1ccccc1SCCS(=O)(=O)c1ccc(Cl)cc1Cl`: > 35 µM (inactive). For the compound `CCOc1ccc(NC(=S)NC(=O)/C=C/c2ccc(C)cc2)c([N+](=O)[O-])c1`, the pEC50 was 4.50. Regarding `Cc1cccc(NC(=S)NC2CCCC2)c1C`, the EC50 is > 35 µM (inactive). Same read-out and setting: the same measure for `COc1ccc(S(=O)(=O)N2CCCCC2C)cc1` (centres undefined): > 35 µM (inactive); for `CCOC(=O)c1cccc(NC(=O)CN(c2ccc(C)cc2)S(=O)(=O)c2c(C)noc2C)c1`: > 35 µM (inactive). The same measure, in the same setting: the same measure for `Cc1cccc(Nc2nc(N)c([N+](=O)[O-])c(N3CCCC(C)C3)n2)c1` (centres undefined): > 35 µM (inactive); for `O=C(COC(=O)c1ccc(CN2CCCC2=O)cc1)Nc1ccc(F)cc1`: > 35 µM (inactive). On the same count and under the same terms, the same measure for `Clc1ccccc1CN(Cc1ccccc1)c1ncnc2nc[nH]c12`: > 35 µM (inactive); for `CCOC(=O)CS(=O)(=O)c1nc(-c2ccccc2)cc(C(F)(F)F)n1`: > 35 µM (inactive); for `CCCNC(=O)c1ccc(COc2ccc(Cl)cc2)o1`: > 35 µM (inactive). Consider `CC(=O)[C@]1(O)Cc2c(O)c3c(c(O)c2[C@@H](O[C@H]2C[C@H](N)[C@H](O)[C@H](C)O2)C1)C(=O)c1ccccc1C3=O`, for which the EC50 is > 35 µM (inactive). In the case of `COc1ccc(/C=C2\SC(=O)N(CCC(=O)N(C)C3CCS(=O)(=O)C3)C2=O)cc1` (centres undefined), the EC50 is > 35 µM (inactive). As for `CN(CC(=O)Nc1ccc(F)cc1)C(=O)c1ccccc1OCc1ccc(F)cc1`, the EC50 was > 35 µM (inactive). As for `O=C(Cc1ccc(-n2cccc2)cc1)NC1CCCCC1`, the EC50 was > 35 µM (inactive).
